Measurements published in patent US20130231276A1, “Combination Of An Aminoacyl-tRNA Synthetase Inhibitor With A Further Antibacterial Agent For Attenuating Multiple Drug Resistance” (BROWN UNIVERSITY, priority 2010, published 2013).
≈ marks a conversion by molar mass, not a printed value. Read-outs that look alike come from different tables or passages of the source.

Tests used:
[1] = system: Streptomyces coelicolor B728; assay: MIC on Difco Nutrient Agar with sub-lethal indolmycin, strain B728 (trpRS2 null); assay type: cell-based
Method: (§1) Changes in the susceptibility of S. coelicolor to three clinically used antibacterial drugs (chloramphenicol, erythromycin, and vancomycin) grown in the presence of indolmycin were assessed. The effects of antibiotic combinations were assessed in wild-type S. coelicolor, which has an auxiliary, indolmycin-resistant isoform of tryptophanyl-tRNA synthetase (TrpRS1). We also examined these combinations in three other indolmycin-resistant strains of S. coelicolor—a trpRS2 null strain (B728) (8) and two strains lacking trpRS1 with resistance conferring point mutations in trpRS2 (B734 with TrpRS2 H48N and B735 with TrpRS2 H48Q) (9). These strains were selected because the strong antibacterial activity of indolmycin precluded testing of this hypothesis in the indolmycin-sensitive trpRS1 null strain of S. coelicolor. The effects were measured in terms of changes in the chloramphenicol, erythromycin, and vancomycin MICs of the four strains over a range of sub-lethal indolmycin concentrations.
(§2) Streptomyces coelicolor strains were grown on DIFCO Nutrient Agar supplemented with indolmycin (0-100 μg/mL) and one of the following antibacterial agents: chloramphenicol (10-80 μg /mL), erythromycin (1-110 μg/mL), and vancomycin (30-140 μg/mL). The strains were grown on the media at 30° C. for 48 hours, after which point growth was assessed visually.
(§3) A 50 mg/mL (active enantiomer) stock solution of indolmycin was prepared by dissolving the indolmycin in DMSO. The concentrations of each stock solution reflect the actual concentration of the pharmacologically active substance. Aliquots of the stock solutions were added directly to molten, sterile DIFCO Nutrient Agar prior to solidification. Streptomyces coelicolor spores were directly spread onto the surface of each DNA plate and the plates were incubated at 30° C. for about 48 hours. Growth was assessed visually after the incubation period. Minimal inhibitory concentrations (MICs) reflect the drug concentrations at which no Streptomyces coelicolor growth was observed.
(§4) All Streptomyces strains were grown on Difco Nutrient Agar at 30° C. The MICs were assessed after 48 hours.

[2] = system: Streptomyces coelicolor M600; assay: MIC on Difco Nutrient Agar with sub-lethal indolmycin, strain M600 (wild-type); assay type: cell-based; conditions: for MIC: Streptomyces coelicolor, M600, 48 h, 30° C., 48 hours
Method: as §1, §2, §3, §4

Helicobacter pylori = conditions: cited from earlier work
S. coelicolor = assay: Indolmycin MIC against S. coelicolor; assay type: cell-based, Streptomyces coelicolor; conditions: indolmycin alone
[3] = system: methicillin-resistant Staphylococcus aureus; conditions: cited from earlier work
[4] = biological target: tryptophanyl-tRNA synthetase (TrpRS1) (Streptomyces coelicolor, UniProt Q8CJX0); conditions: TrpRS1 of S. coelicolor, reference (19), cited from earlier work
[5] = Streptomyces coelicolor, B728, 48 h, strain B728, 0 μg/ml Indolmycin, 30° C., 48 hours
[6] = Streptomyces coelicolor, B728, 48 h, strain B728, 10 μg/ml Indolmycin, 30° C., 48 hours
[7] = Streptomyces coelicolor, B728, 48 h, strain B728, 25 μg/ml Indolmycin, 30° C., 48 hours
[8] = Streptomyces coelicolor, B728, 48 h, strain B728, 50 μg/ml Indolmycin, 30° C., 48 hours
[9] = Streptomyces coelicolor, B728, 48 h, strain B728, 75 μg/ml Indolmycin, 30° C., 48 hours
[10] = Streptomyces coelicolor, B728, 48 h, strain B728, 100 μg/ml Indolmycin, 30° C., 48 hours
[11] = strain M600, 0 μg/ml Indolmycin, read-out: MIC
[12] = strain M600, 10 μg/ml Indolmycin, read-out: MIC
[13] = strain M600, 25 μg/ml Indolmycin, read-out: MIC
[14] = strain M600, 50 μg/ml Indolmycin, read-out: MIC
[15] = strain M600, 75 μg/ml Indolmycin, read-out: MIC
[16] = strain M600, 100 μg/ml Indolmycin, read-out: MIC

Sequence of tryptophanyl-tRNA synthetase (TrpRS1) (Q8CJX0 whole entry): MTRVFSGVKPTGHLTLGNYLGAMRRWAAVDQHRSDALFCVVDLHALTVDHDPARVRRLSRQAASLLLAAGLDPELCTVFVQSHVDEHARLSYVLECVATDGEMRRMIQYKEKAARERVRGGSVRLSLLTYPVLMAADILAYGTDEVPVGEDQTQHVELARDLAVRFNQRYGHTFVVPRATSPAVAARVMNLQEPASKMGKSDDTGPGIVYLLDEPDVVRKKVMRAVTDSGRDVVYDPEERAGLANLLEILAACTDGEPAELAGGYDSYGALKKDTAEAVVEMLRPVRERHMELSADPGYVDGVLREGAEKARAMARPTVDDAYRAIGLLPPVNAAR

Row | SMILES | MIC [1, 5] [µg/mL] | MIC [1, 6] [µg/mL] | MIC [1, 7] [µg/mL] | MIC [1, 8] [µg/mL] | MIC [1, 9] [µg/mL] | MIC [1, 10] [µg/mL] | MIC [2, 11] [µg/mL] | MIC [2, 12] [µg/mL] | MIC [2, 13] [µg/mL] | MIC [2, 14] [µg/mL] | MIC [2, 15] [µg/mL] | MIC [2, 16] [µg/mL] | also measured
1 | O=C(N[C@H](CO)[C@H](O)c1ccc([N+](=O)[O-])cc1)C(Cl)Cl [Chloramphenicol, chloramphenicol] | 60 | 40 | 30 | 30 | 20 | 20 | 80 | 35 | 25 | 20 | 15 | 10 | MIC was reduced ([2]; wild-type S. coelicolor, media supplemented with indolmycin): 10 fold
2 | CC[C@H]1OC(=O)[C@H](C)[C@@H](O[C@H]2C[C@@](C)(OC)[C@@H](O)[C@H](C)O2)[C@H](C)[C@@H](O[C@@H]2O[C@H](C)C[C@H](N(C)C)[C@H]2O)[C@](C)(O)C[C@@H](C)C(=O)[C@H](C)[C@@H](O)[C@]1(C)O [Erythromycin, erythromycin] | 70 | 50 | 30 | 20 | 10 | 5 | 110 | 40 | 30 | 15 | 10 | 5 | 
3 | CN[C@H](CC(C)C)C(=O)N[C@H]1C(=O)N[C@@H](CC(N)=O)C(=O)N[C@H]2C(=O)N[C@H]3C(=O)N[C@H](C(=O)N[C@H](C(=O)O)c4cc(O)cc(O)c4-c4cc3ccc4O)[C@H](O)c3ccc(c(Cl)c3)Oc3cc2cc(c3O[C@@H]2O[C@H](CO)[C@@H](O)[C@H](O)[C@H]2O[C@H]2C[C@](C)(N)[C@H](O)[C@H](C)O2)Oc2ccc(cc2Cl)[C@H]1O [Vancomycin, vancomycin] |  |  |  |  |  |  |  |  |  |  |  |  | MIC ([1]; Streptomyces coelicolor, B728, 48 h): 130 µg/mL; MIC ([1]; strain B728, 10 μg/ml Indolmycin, 30° C., 48 hours): 130 µg/mL; MIC ([1]; strain B728, 25 μg/ml Indolmycin, 30° C., 48 hours): 130 µg/mL; MIC ([1]; strain B728, 50 μg/ml Indolmycin, 30° C., 48 hours): 130 µg/mL; MIC ([1]; strain B728, 75 μg/ml Indolmycin, 30° C., 48 hours): 130 µg/mL; MIC ([1]; strain B728, 100 μg/ml Indolmycin, 30° C., 48 hours): 130 µg/mL; MIC ([2]; strain M600, 0 μg/ml Indolmycin): 110 µg/mL; MIC ([2]; strain M600, 10 μg/ml Indolmycin): 110 µg/mL; MIC ([2]; strain M600, 25 μg/ml Indolmycin): 110 µg/mL; MIC ([2]; strain M600, 50 μg/ml Indolmycin): 110 µg/mL; MIC ([2]; strain M600, 75 μg/ml Indolmycin): 110 µg/mL; MIC ([2]; strain M600, 100 μg/ml Indolmycin): 70 µg/mL; more sensitive in the presence of indolmycin ([2]; strain M600, about 100 μg/mL indolmycin): 1.6 times
4 | CN=C1NC(=O)[C@H]([C@H](C)c2c[nH]c3ccccc23)O1 [indolmycin] |  |  |  |  |  |  |  |  |  |  |  |  | MIC (Helicobacter pylori): 0.016 µg/mL (≈ 0.0622 µM); MIC (S. coelicolor): > 500 µg/mL; MIC [3]: 0.5 µg/mL (≈ 1.94 µM); Ki [4]: 900 nM; Ki ([4]; listed as Indolmycin): ~900 nM
